In US20230065158A1, “OXABICYCLOHEPTANES FOR TREATMENT OF SMALL CELL LUNG CANCER” (Lixte Biotechnology, Inc., priority 2021, published 2023):

Assays:
[1] = system: H524 cells; experiment: Seahorse XF Real-Time ATP rate assay, H524; format: cell-based; conditions: LB100 2.5 μM, carboplatin 4 μM
Experimental: FIGS. 6A-6J depict ATP production rate in SCLC cells. FIG. 6A: H524 cells were treated with LB100 (2.5 μM), carboplatin (4 μM), or a combination, and ATP production rate was measured using the Agilent Seahorse XF Real Time ATP rate assay. mitoATP (mitochondrial) and glycoATP (glycolityc) rates were evaluated in H524 cells without and with drug treatments. […] FIG. 6B: Energetic map of H524 cells. After LB-100 and drug combination, cells became less glycolytic. FIGS. 6C-6E: The Agilent Seahorse XF pH sensor probe measures changes in the concentration of free protons, which corresponds to Extracellular Acidification Rate (ECAR). […] ATP level in cells was measured using the Agilent Seahorse XF Real Time ATP rate assay. […]
To elucidate the effect of the drugs on the glycolytic metabolism of H524 cells, we analyzed the proton efflux rate (PER). PER is calculated by subtracting acidification produced from mitochondrial CO2 production (Mitochondrial-derived CO2 can partially hydrate in the extracellular medium, resulting in additional extracellular acidification beyond that contributed by glycolysis) from total acidification or protons efflux (from both glycolysis and mitochondrial) into the extra cellular medium. […] To confirm that LB100 also affected glycolytic pathway in LB100-resistant cells, we measured PER in these cells. […]

[2] = system: H69 cells mouse xenograft; experiment: Subcutaneous H69 cells mouse xenograft; format: in vivo, Athymic nude mice; conditions: for tumor weight compared to vehicle-treated group: end of experiment
Experimental: FIGS. 8A-8E depicts results of LB-100 activity alone and with carboplatin against H69 cells mouse xenograft. Tumor size (FIG. 8A) and body weights (FIG. 8B) were measured. Inhibition of tumor growth after LB-100 (*p<0.05), carboplatin (***p<0.001) and their combination (***p<0.001) were delivered via i.p. injections. P values show significant differences compared with vehicle group. FIG. 8C: Tumor images from vehicle and drug-treated groups. FIG. 8D: Tumor mass was measured at the end of experiment. […] FIG. 8E: Columns show total platinum (Pt) concentration in mouse tumors with carboplatin and LB-100/carboplatin treatments (n=3 as technical replicates) Pt mass was normalized to tumor total mass. Statistical analysis was performed using an ANOVA with Tukey post hoc-test (*p<0.05), carboplatin (**p<0.01).
Animal studies were performed according to an IACUC protocol approved by City of Hope National Medical Center Animal Care and Use Committee. Athymic nude mice (5-6 weeks of age) were purchased from NCI (Frederick, Md.). Mice were injected subcutaneously on their right flank with H69 cells suspended (2×106) in 100 μl of PBS and 100 μl of matrigel (BD Biosciences, San Jose, Calif.). Tumor growth was measured in two dimensions with caliper and when surface tumor was visible (45-50 mm2) mice were randomized in four groups as follow: vehicle (PBS, i.p. 3 times a week), LB100 (0.25 mg/kg, i.p. 3 times a week), carboplatin (50 mg/kg, i.p. 2 times a week) and drug combination (LB100/carboplatin i.p.) for 30 days. At the end of the study, the mice were euthanized by CO2 asphyxiation followed by cervical dislocation. Tumor tissues were excised, weighed, and subsequently fixed in 10% buffered formalin and embedded in paraffin for histological analysis.

[3] = system: H146 cells; conditions: human, 72 h
Excerpt: To determine specific cytotoxicity, we used Cell Counting Kit-8 (Dojindo Molecular Technologies, Rockville, Md.) as previously described (50).

SMILES | reduction of total ATP production rate compared to untreated cells [1] | tumor weight compared to vehicle-treated group [2] | tumor size ([2]; i.p., 30 days) | IC50 [3]
N.N.O=C([O-])C1(C(=O)[O-])CCC1.[Pt+2] [Carboplatin, reference compound] | 36.3% | significant reduction in tumor weight | – | –
C[NH+]1CCN(C(=O)C2C(C(=O)O)[C@H]3CC[C@@H]2O3)CC1 (stereo in doubt) [LB-100, 3-[(4-Methylpiperazin-1-yl)carbonyl]-7-oxabicyclo[2.2.1]heptane-2-carboxylic acid] | 73.7% | significant reduction in tumor weight | statistically significant reduction in tumor size | > 20 µM
